In ChEMBL document CHEMBL4359815, “Design, synthesis, antitumor activities and biological studies of novel diaryl substituted fused heterocycles as dual ligands targeting tubulin and katanin” (Eur J Med Chem, 2019):
The source made the active and inactive calls. No cut-off for these calls is given here.

Experiments:
[1] = test system: A549; test: Induction of apoptosis in human A549 cells assessed as late apoptotic cells at 2 uM after 48 hrs by Annexin-V/propidium iodide staining based flow cytometric method (reference value: 1.18%); assay type: functional
[2] = test system: HCT-116; test: Antiproliferative activity against human HCT116 cells assessed as reduction in cell viability after 48 hrs by MTT assay; assay type: functional, cell-based; conditions: HCT-116, 48 h
[3] = test system: A549; test: Induction of apoptosis in human A549 cells after 48 hrs by Annexin-V/propidium iodide staining based flow cytometric method; assay type: functional, cell-based
[4] = test system: A549; test: Induction of apoptosis in human A549 cells assessed as necrotic cells at 1 uM after 48 hrs by Annexin-V/propidium iodide staining based flow cytometric method (reference value: 6.26%); assay type: functional
[5] = test system: A2780; test: Antitumour activity against human A2780 cells xenografted in Balb/c mouse assessed as reduction in tumour weight at 25 to 50 mg/kg, ip administered every other day; assay type: functional, organism-based
[6] = test system: A549; test: Induction of apoptosis in human A549 cells assessed as early apoptotic cells at 1 uM after 48 hrs by Annexin-V/propidium iodide staining based flow cytometric method (reference value: 0.51%); assay type: functional
[7] = test system: A549; test: Induction of apoptosis in human A549 cells assessed as necrotic cells at 2 uM after 48 hrs by Annexin-V/propidium iodide staining based flow cytometric method (reference value: 6.26%); assay type: functional
[8] = Half life in ICR mouse at 50 mg/kg, ip after 0.08 to 24 hrs by HPLC-MS/MS analysis; assay type: ADME, organism-based; conditions: in vivo
[9] = Toxicity in Balb/c mouse xenografted with human A2780 cells assessed effect on body weight at 25 to 50 mg/kg, ip administered every other day; assay type: organism-based; conditions: in vivo
[10] = test system: A549; test: Cell cycle arrest in human A549 cells assessed as accumulation of cells at G2/M phase at 0.5 to 2 uM after 24 hrs by RNase A/propidium iodide staining-based flow cytometric analysis; assay type: functional
[11] = test system: A549; test: Cell cycle arrest in human A549 cells assessed as increase in histone 3 phosphorylation at 0.5 to 2 uM after 24 hrs by immunoblotting analysis; assay type: functional, cell-based
[12] = target: Tubulin (Sus scrofa) (UniProt P02554+P02550); test: (§1) Inhibition of pig brain tubulin polymerization measured every 1 min for 25 mins by spectrophotometric method
Chain of Tubulin (Sus scrofa) (P02550 whole entry, looked up): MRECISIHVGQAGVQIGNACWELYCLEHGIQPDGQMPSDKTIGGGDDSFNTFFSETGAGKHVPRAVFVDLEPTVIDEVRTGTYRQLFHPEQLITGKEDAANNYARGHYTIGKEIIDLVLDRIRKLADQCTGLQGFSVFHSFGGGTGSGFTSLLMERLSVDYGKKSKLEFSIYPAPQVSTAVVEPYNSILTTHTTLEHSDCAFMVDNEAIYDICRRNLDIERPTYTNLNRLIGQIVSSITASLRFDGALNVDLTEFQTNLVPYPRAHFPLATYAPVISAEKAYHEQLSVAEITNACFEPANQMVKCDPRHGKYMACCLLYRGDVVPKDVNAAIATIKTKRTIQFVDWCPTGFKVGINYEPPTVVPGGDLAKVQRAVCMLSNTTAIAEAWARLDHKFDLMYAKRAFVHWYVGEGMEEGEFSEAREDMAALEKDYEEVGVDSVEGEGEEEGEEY
Chain of Tubulin (Sus scrofa) (P02554 whole entry, looked up): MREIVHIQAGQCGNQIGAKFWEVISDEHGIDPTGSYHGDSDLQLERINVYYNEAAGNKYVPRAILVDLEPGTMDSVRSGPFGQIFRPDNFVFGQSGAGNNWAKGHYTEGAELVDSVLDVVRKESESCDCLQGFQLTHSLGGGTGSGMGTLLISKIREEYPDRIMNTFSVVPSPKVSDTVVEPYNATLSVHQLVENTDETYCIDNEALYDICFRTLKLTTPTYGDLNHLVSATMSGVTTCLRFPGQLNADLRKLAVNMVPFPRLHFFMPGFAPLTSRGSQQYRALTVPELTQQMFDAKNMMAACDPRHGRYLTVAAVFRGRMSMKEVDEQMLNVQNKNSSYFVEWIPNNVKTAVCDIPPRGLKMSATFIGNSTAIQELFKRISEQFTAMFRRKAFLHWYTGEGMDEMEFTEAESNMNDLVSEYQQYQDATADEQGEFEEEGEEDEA

[13] = target: Tubulin (Sus scrofa, UniProt P02554+P02550); test: as §1
[14] = Apparent oral clearance ICR mouse at 50 mg/kg, ip after 0.08 to 24 hrs by HPLC-MS/MS analysis; assay type: ADME, organism-based; conditions: in vivo
[15] = test system: HUVEC; test: Cytotoxicity against HUVEC after 48 hrs by MTT assay; assay type: cell-based; conditions: Homo sapiens
[16] = test system: A549; test: Induction of apoptosis in human A549 cells assessed as early apoptotic cells at 0.5 uM after 48 hrs by Annexin-V/propidium iodide staining based flow cytometric method (reference value: 0.51%); assay type: functional
[17] = target: Tubulin (Homo sapiens) (UniProt P68371+Q9H4B7+P0DPH7+P68366+Q13509+Q71U36+P04350+Q3ZCM7+P07437+P68363+Q9BQE3+Q6PEY2+Q13885+Q9BVA1+Q9BUF5); test: Induction of tubulin depolymerization in human HeLa cells after 24 hrs by DAPI staining based fluorescence microscopic analysis; assay type: cell-based
[18] = Tmax in ICR mouse at 50 mg/kg, ip after 0.08 to 24 hrs by HPLC-MS/MS analysis; assay type: ADME, organism-based; conditions: in vivo
[19] = Cmax in ICR mouse at 50 mg/kg, ip after 0.08 to 24 hrs by HPLC-MS/MS analysis; assay type: ADME, organism-based; parameters: dose 50 mg/kg, route intraperitoneal; conditions: in vivo
[20] = Apparent volume of distribution in ICR mouse at 50 mg/kg, ip after 0.08 to 24 hrs by HPLC-MS/MS analysis; assay type: ADME, organism-based; conditions: in vivo
[21] = test system: A549; test: Induction of apoptosis in human A549 cells assessed as increase in Bad expression level at 2 to 8 uM after 48 hrs by immunoblotting analysis; assay type: functional, cell-based
[22] = test system: A549; test: Induction of apoptosis in human A549 cells assessed as early apoptotic cells at 2 uM after 48 hrs by Annexin-V/propidium iodide staining based flow cytometric method (reference value: 0.51%); assay type: functional
[23] = test system: A549; test: Antiproliferative activity against human A549 cells assessed as reduction in cell viability after 48 hrs by MTT assay; assay type: functional, cell-based; conditions: A549, 48 h
[24] = test system: HeLa; test: Antiproliferative activity against human HeLa cells assessed as reduction in cell viability after 48 hrs by MTT assay; assay type: functional, cell-based
[25] = test system: A549; test: Induction of apoptosis in human A549 cells assessed as viable cells at 0.5 uM after 48 hrs by Annexin-V/propidium iodide staining based flow cytometric method (reference value: 92.05%); assay type: functional; conditions: A549, 48 h, read-out: Activity
[26] = test system: HUVEC; test: Antiangiogenic activity in HUVEC assessed as inhibition of capillary like tube formation in matrigel at 0.2 uM after 24 hrs by matrigel-based inverted microscopic analysis; assay type: functional, cell-based; conditions: Homo sapiens
[27] = test system: A549; test: Antiproliferative activity against human A549 cells harboring katanin siRNA after 48 hrs by MTT assay; assay type: functional, cell-based; conditions: A549, 48 h
[28] = test system: A549; test: Induction of apoptosis in human A549 cells assessed as PARP cleavage at 2 to 8 uM after 48 hrs by immunoblotting analysis; assay type: functional, cell-based
[29] = test system: A549; test: Cell cycle arrest in human A549 cells after 24 hrs by RNase A/propidium iodide staining-based flow cytometric analysis; assay type: functional
[30] = target: Katanin p60 ATPase-containing subunit A1 (Homo sapiens) (UniProt O75449); test: Inhibition of Katanin p60 degradation in human A549 cells preincubated for 15 mins followed by compound addition in presence of cycloheximide by immunoblotting analysis; assay type: cell-based
Chain of Katanin p60 ATPase-containing subunit A1 (Homo sapiens) (O75449 whole entry): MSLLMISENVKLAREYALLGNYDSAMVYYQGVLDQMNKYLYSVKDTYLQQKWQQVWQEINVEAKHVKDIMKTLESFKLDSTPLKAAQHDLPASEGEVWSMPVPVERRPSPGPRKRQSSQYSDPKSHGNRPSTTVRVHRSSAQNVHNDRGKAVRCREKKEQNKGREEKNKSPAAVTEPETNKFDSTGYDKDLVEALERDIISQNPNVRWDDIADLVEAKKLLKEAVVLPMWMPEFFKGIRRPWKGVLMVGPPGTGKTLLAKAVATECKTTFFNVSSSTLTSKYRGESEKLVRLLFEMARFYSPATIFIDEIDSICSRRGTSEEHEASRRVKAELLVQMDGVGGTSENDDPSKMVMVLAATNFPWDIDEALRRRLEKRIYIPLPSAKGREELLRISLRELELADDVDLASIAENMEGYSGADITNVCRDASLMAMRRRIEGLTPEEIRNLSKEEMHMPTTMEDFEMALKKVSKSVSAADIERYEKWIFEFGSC

[31] = test system: A549; test: Cell cycle arrest in human A549 cells assessed as increase in p21 expression at 0.5 to 2 uM after 24 hrs by immunoblotting analysis; assay type: functional, cell-based
[32] = test system: A549; test: Inhibition of colony formation in human A549 cells after 48 hrs by crystal violet staining based assay; assay type: functional, cell-based
[33] = test system: A549; test: Induction of apoptosis in human A549 cells assessed as viable cells at 2 uM after 48 hrs by Annexin-V/propidium iodide staining based flow cytometric method (reference value: 92.05%); assay type: functional; conditions: A549, 48 h, read-out: Activity
[34] = test system: A549; test: Antiproliferative activity against human A549 cells harboring control siRNA after 48 hrs by MTT assay; assay type: functional, cell-based; conditions: A549, 48 h
[35] = test system: A549; test: Induction of apoptosis in human A549 cells assessed as late apoptotic cells at 1 uM after 48 hrs by Annexin-V/propidium iodide staining based flow cytometric method (reference value: 1.18%); assay type: functional
[36] = test system: A549; test: Cell cycle arrest in human A549 cells assessed as increase in cyclin B1 expression at 0.5 to 2 uM after 24 hrs by immunoblotting analysis; assay type: functional, cell-based
[37] = AUC(0 to infinity) in ICR mouse at 50 mg/kg, ip after 0.08 to 24 hrs by HPLC-MS/MS analysis; assay type: ADME, organism-based; parameters: dose 50 mg/kg, time infinity, route intraperitoneal; conditions: in vivo
[38] = test system: A549; test: Induction of apoptosis in human A549 cells assessed as viable cells at 1 uM after 48 hrs by Annexin-V/propidium iodide staining based flow cytometric method (reference value: 92.05%); assay type: functional; conditions: A549, 48 h, read-out: Activity
[39] = MRT in ICR mouse at 50 mg/kg, ip after 0.08 to 24 hrs by HPLC-MS/MS analysis; assay type: ADME, organism-based; conditions: in vivo
[40] = test system: A2780; test: Antiproliferative activity against human A2780 cells assessed as reduction in cell viability after 48 hrs by MTT assay; assay type: functional, cell-based; conditions: A2780, 48 h
[41] = test system: A549; test: Induction of apoptosis in human A549 cells assessed as necrotic cells at 0.5 uM after 48 hrs by Annexin-V/propidium iodide staining based flow cytometric method (reference value: 6.26%); assay type: functional
[42] = test system: A549; test: Induction of apoptosis in human A549 cells assessed as late apoptotic cells at 0.5 uM after 48 hrs by Annexin-V/propidium iodide staining based flow cytometric method (reference value: 1.18%); assay type: functional
[43] = AUC (0 to 24 hrs) in ICR mouse at 50 mg/kg, ip after 0.08 to 24 hrs by HPLC-MS/MS analysis; assay type: ADME, organism-based; parameters: time < 24 hr, dose 50 mg/kg, route intraperitoneal; conditions: in vivo
[44] = Binding affinity to human katanin by MST assay
[45] = test system: A549; test: Induction of apoptosis in human A549 cells assessed as increase in p53 expression level at 2 to 8 uM after 48 hrs by immunoblotting analysis; assay type: functional, cell-based
[46] = test system: A2780; test: Antitumour activity against human A2780 cells xenografted in Balb/c mouse assessed as reduction in tumour volume at 25 to 50 mg/kg, ip administered every other day by caliper method; assay type: functional, organism-based
[47] = test system: HUVEC; test: Antiangiogenic activity in HUVEC assessed as inhibition of capillary like tube formation in matrigel at 0.4 uM after 24 hrs by matrigel-based inverted microscopic analysis relative to control; assay type: functional; conditions: Homo sapiens

IC50 [2]: 170 nM | half-life [8]: 9.36 h | inhibition [12]: Dose-dependent effect | IC50 [13]: 8400 nM | CL/F [14]: 5.73 mL/min | Activity [17]: Dose-dependent effect | Tmax [18]: 0.23 h | Cmax [19]: 580 ng/mL | Vd/F [20]: 4625.07 mL | IC50 [23]: 400 nM | IC50 [24]: 250 nM | IC50 [27]: 1480 nM | inhibition [30]: inactive | IC50 [34]: 340 nM | AUC(0-inf) [37]: 2950 ng·h/mL | MRT [39]: 8.39 h | IC50 [40]: 210 nM | AUC(0-t) at 24 h [43]: 2630 ng·h/mL | Kd [44]: 12700 nM
SMILES: COc1ccc(-c2cc3c([nH]c(=O)n3-c3cc(OC)c(OC)c(OC)c3)c(C(N)=O)n2)cc1O
Activity [1]: 14.08% | Activity [3]: Dose-dependent effect | Activity [4]: 10.33% | Activity [5]: Active | Activity [6]: 15.85% | Activity [7]: 7.2% | Activity [9]: Non-Toxic | inhibition [10]: Active | Activity [11]: Active | IC50 [15]: > 10000 nM | Activity [16]: 7.51% | Activity [21]: Active | Activity [22]: 36.48% | viability at 0.5 µM [25]: 79.7% | inhibition [26]: Active | Activity [28]: Active | inhibition [29]: Dose-dependent effect | Activity [31]: Active | inhibition [32]: Dose-dependent effect | viability at 2 µM [33]: 42.2% | Activity [35]: 8.69% | Activity [36]: Active | viability at 1 µM [38]: 65.1% | Activity [41]: 7.34% | Activity [42]: 5.43% | Activity [45]: Active | Activity [46]: Active | inhibition at 0.4 µM [47]: 100%
